The text below walks through data of patent publication US11786592B2, “Compositions of cardiolipin adjuvants and methods of use thereof” (The University of Hong Kong, priority 2021, dated 2023).

The test system of test [1] is BALB/c mice immunized with human quadrivalent influenza vaccine. Type of test: in vivo. Conditions: 16 days post-immunization; flow cytometry; vaccine plus cardiolipin compared to vehicle or vaccine only; FIG. 3A-3H. In general terms: Flow cytometry measures light scatter and fluorescence of single cells or particles in a stream.
Test [2] shares this test system. Type of test: in vivo.

For the compound `CCCCC/C=C\C/C=C\CCCCCCCC(=O)OC[C@H](COP(=O)([O-])OCC(O)COP(=O)([O-])OC[C@@H](COC(=O)CCCCCCC/C=C\C/C=C\CCCCC)OC(=O)CCCCCCC/C=C\C/C=C\CCCCC)OC(=O)CCCCCCC/C=C\C/C=C\CCCCC.[Na+].[Na+]` (stereo partly shown) [cardiolipin (C18:2)4], the “cells producing the examined cytokines (IFN-γ, IL-4 and IL-17A) in inguinal lymph nodes” value in test [1] was “significant increase”. Further, the “accelerated seroconversion (time post-immunization)” value in test [2] (100 μg/kg cardiolipin (C18:2)4 mixed with […] TETRA vaccine (1 microgram HA), intramuscular and subcutaneous, cardiolipin booster at day 10, compared to vehicle or vaccine only) is 7 days. Also, the “vaccine antigen-specific antibodies in sera” value in test [2] (13 days post-immunization, 100 μg/kg cardiolipin (C18:2)4 with vaccine, compared to vehicle or vaccine only, FIG. 2A-2B (IgM, IgG)) is recorded as “significantly higher”. The “subclasses of virus-specific antibodies elicited (Th1/Th2 response)” value in test [2] (serum IgG, IgG1, IgG2a, IgG2b by ELISA, FIG. 2C-2F) was “elicited both IgG2a and IgG1 subclasses of virus-specific antibodies, indicating a balanced Th1/Th2 response”.
